Reference: article PMC8286831, “Identifying SARS-CoV-2 antiviral compounds by screening for small molecule inhibitors of nsp13 helicase” (Biochemical Journal, 2021)
pEC50, pIC50: −log10 of the molar value. Values joined by “and” are separate entries in the source; they are usually repeats but may differ in a detail not shown here. Equal entries are not always repeated. “Also recorded” adds a separate entry of the source. Where two headings read alike, the source gives them in different places.

Legend:
[1] = biological target: T1, SARS-CoV-2 RdRp holoenzyme (Severe acute respiratory syndrome coronavirus 2, UniProt P0DTD1); experiment: FRET-based RdRp strand displacement assay; assay type: biochemical
T1 construct: (Sf nsp12-3F/7L8 preincubated with Sf 7H8 at a 1:3 ratio); 3F (3xFlag) (C); made in house; host or cells: 'Sf', read as Spodoptera frugiperda insect cells (my inference from the prefix); details are in Bertolin et al

[2] = biological target: T2, SARS-CoV-2 nsp13 helicase (Severe acute respiratory syndrome coronavirus 2, UniProt P0DTD1); experiment: biochemical; assay type: biochemical
[3] = biological target: T2, SARS-CoV-2 nsp13 helicase; assay type: biochemical
[4] = tested on: SARS-CoV-2; experiment: microbe, parasite or virus in culture; assay type: cell-based; conditions: for pEC50: read-out: EC50 viral inhibition
[5] = RNA (RdRp substrate), 0.3 mM each NTP, 0.02% Tween-20 in RdRp assay buffer, read-out: IC50 RdRp
[6] = RNA (nsp13 substrate), 0.3 mM ATP, 0.02% Tween-20 in RdRp assay buffer, read-out: IC50 nsp13
[7] = read-out: IC50 + 0.02% Tween-20
[8] = read-out: IC50 + 0.01% Triton X-100
[9] = Severe acute respiratory syndrome coronavirus 2, Vero C1008, 22 h
[10] = IC50 0.02% Tween-20 + (presence)
[11] = IC50 0.02% Tween-20 − (absence)

Structure (SMILES)	pIC50 [2, 6]	pIC50 [2, 7]	pIC50 ([2]; read-out: IC50 No detergent)	inhibition of duplex unwinding in gel-based assay [3]	pIC50 ([2]; IC50 No detergent)	pEC50 [4]	nsp13 inhibition and detergent sensitivity [2]	further results
Cc1cc(-c2ccc(N=Nc3c(S(=O)(=O)[O-])cc4cc(S(=O)(=O)[O-])cc(N)c4c3O)c(C)c2)ccc1N=Nc1c(S(=O)(=O)[O-])cc2cc(S(=O)(=O)[O-])cc(N)c2c1O.[Na+].[Na+].[Na+].[Na+] [Diphenyl Blue]	5.40	5.33	5.25	clearly reduced the generation of single-stranded Cy3 strand				pIC50 [1, 5]: 5.30
Cc1cc(-c2ccc(/N=N/c3ccc4c(S(=O)(=O)O)cc(S(=O)(=O)O)c(N)c4c3O)c(C)c2)ccc1/N=N/c1ccc2c(S(=O)(=O)O)cc(S(=O)(=O)O)c(N)c2c1O [Evans Blue]	5.82			clearly reduced the generation of single-stranded Cy3 strand	5.92			
NC(=S)N/N=C/c1coc2ccccc2c1=O.[Cl][Cu][Cl] [FPA 124]		5.08	5.07	clearly reduced the generation of single-stranded Cy3 strand		4.85 and ~4.85	no detergent sensitivity; also recorded: largely insensitive to detergent addition	pIC50 [2, 8]: 5.05; pIC50 ([2]; read-out: IC50 -Triton X-100): 5.04; pIC50 ([2]; read-out: IC50 against nsp13 in vitro): ~5.05
O=c1c(O)c(-c2cc(O)c(O)c(O)c2)oc2cc(O)cc(O)c12 [Myricetin]				inhibited nsp13 with less efficiency		4.50	clear inhibition only in the absence of detergent	pEC50 [4, 9]: 4.49
O=C(Nc1cccc(C(=O)Nc2ccc(S(=O)(=O)[O-])c3cc(S(=O)(=O)[O-])cc(S(=O)(=O)[O-])c23)c1)Nc1cccc(C(=O)Nc2ccc(S(=O)(=O)[O-])c3cc(S(=O)(=O)[O-])cc(S(=O)(=O)[O-])c23)c1.[Na+].[Na+].[Na+].[Na+].[Na+].[Na+] [NF 023]	6.15	6.04		clearly reduced the generation of single-stranded Cy3 strand				nsp13 inhibition and detergent sensitivity ([2]; presence or absence of non-ionic detergent): largely insensitive to detergent addition; pIC50 ([2]; read-out: IC50 0.02% Tween-20 + (presence)): 6.19; pIC50 ([2]; read-out: IC50 0.02% Tween-20 − (absence)): 6.17; pIC50 [2, 8]: 6.29; pIC50 ([2]; read-out: IC50 -Triton X-100): 6.48
Cc1nc(N=Nc2cc(S(=O)(=O)[O-])c3cc([N+](=O)[O-])cc(S(=O)(=O)[O-])c3c2)c(COP(=O)([O-])[O-])c(C=O)c1O.[Na+].[Na+].[Na+].[Na+] [PPNDS]	5.66	5.80	5.70	clearly reduced the generation of single-stranded Cy3 strand				pIC50 [1, 5]: 6.15
CCC(CC)COC(=O)[C@H](C)N[P@](=O)(OC[C@H]1O[C@@](C#N)(c2ccc3c(N)ncnn23)[C@H](O)[C@@H]1O)Oc1ccccc1 [Remdesivir]								inhibition at 1 µM ([4]; Severe acute respiratory syndrome coronavirus 2, Vero C1008, 1 µM remdesivir alone, Vero E6 cells, read-out: inhibition of viral infection): < 20%
C=CCn1c(CSc2ccccc2[N+](=O)[O-])n[nH]c1=S [SSYA10-001]		4.55	5.12	inhibited nsp13 with less efficiency		4.09	moderate sensitivity to detergent	pIC50 [2, 8]: 4.68; pIC50 ([2]; read-out: IC50 -Triton X-100): 4.85
Cc1ccc(C(=O)Nc2ccc(S(=O)(=O)O)c3cc(S(=O)(=O)O)cc(S(=O)(=O)O)c23)cc1NC(=O)c1cccc(NC(=O)Nc2cccc(C(=O)Nc3cc(C(=O)Nc4ccc(S(=O)(=O)O)c5cc(S(=O)(=O)O)cc(S(=O)(=O)O)c45)ccc3C)c2)c1 [Suramin]				clearly reduced the generation of single-stranded Cy3 strand	6.03	~5.00	largely insensitive to detergent addition	pEC50 [4, 9]: 5.00; pIC50 [1, 5]: 6.30; pIC50 [2, 10]: 5.80; pIC50 [2, 11]: 6.13; pIC50 ([2]; IC50 + 0.01% Triton X-100): 5.80; pIC50 ([2]; IC50 -Triton X-100): 5.89; pIC50 ([2]; IC50 against nsp13 in vitro): ~6.00; pIC50 ([2]; IC50 nsp13): 5.82
CC1(C)CCC(CN2CCN(c3ccc(C(=O)NS(=O)(=O)c4ccc(NCC5CCOCC5)c([N+](=O)[O-])c4)c(Oc4cnc5[nH]ccc5c4)c3)CC2)=C(c2ccc(Cl)cc2)C1 [Venetoclax/ABT-199, Venetoclax]					4.60			IC50 RdRp ([1]; RNA (RdRp substrate), 0.3 mM each NTP, 0.02% Tween-20 in RdRp assay buffer): No inhibition; pIC50 ([2]; IC50 + 0.02% Tween-20): < 3.60; IC50 nsp13 ([2]; RNA (nsp13 substrate), 0.3 mM ATP, 0.02% Tween-20 in RdRp assay buffer): No inhibition
COc1cc(C(=O)NS(=O)(=O)c2ccccc2C)ccc1Cc1cn(C)c2ccc(NC(=O)OC3CCCC3)cc12 [Zafirlukast]	4.32				5.44 and 5.18			pIC50 [1]: 4.34; pIC50 [2, 10]: 4.30; pIC50 [2, 11]: 5.82; pIC50 ([2]; IC50 + 0.01% Triton X-100): 4.66; pIC50 ([2]; IC50 + 0.02% Tween-20): 4.28 and 4.26; pIC50 ([2]; IC50 -Triton X-100): 5.13
